The NIST ThermoML archive (doi:10.1016/j.jct.2019.01.015)
± gives the expanded uncertainty stated by the source.

Key:
[1] = Molar enthalpy of transition or fusion; conditions: Crystal; DSC
[2] = Crystal; DSC

Question: With `C=NCC#N` [methyleneaminoacetonitrile] as the molecule, how does the “Molar enthalpy of transition or fusion” value [1] read?
Answer: 2.55 ± 0.0884 kcal/mol

Question: What about the Triple point temperature [2] of the same molecule?
Answer: 402.15 ± 1 K
